Experimental data published in patent US12544356B2, “Combination of a chromene compound and a second active agent” (EUCLISES PHARMACEUTICALS, INC., priority 2016, dated 2026).

How the values were obtained:
[1] = tested on: HT-29 xenograft murine colon carcinoma model; assay: HT-29 xenograft tumor growth, Compound A01 with erlotinib (Example 1); assay type: in vivo, CB17SCID male mice
Description: HT-29 cells were cultured in medium for one week. Following digestion cells were centrifuged for 3-5 minutes at 800-1500 rpm. Cells were washed with PBS and centrifuged again under the same condition. Cells were then suspended in PBS to a final concentration of […]. 200 μL of the HT-29 cell suspension were subcutaneously injected into the mice left forelimb axillary (2.5×10^6 HT-29 cells per mouse).
(§1) 48 CB17SCID male mice were implanted with 2.5×10^6 HT29 cells. Growth of the tumor was calculated for each animal using a caliper and the equation: V=π×ab^2/6.
(§2) Mouse weight and tumor volume measurements were taken on days 0, 3, 6, 9, 12, 15, 18, 21, and 22 following randomization.

[2] = Body weight in HT-29 xenograft study (Example 1); assay type: in vivo, CB17SCID male mice
Description: as §1, §2

[3] = Intratumoral concentration of Compound A01 and erlotinib (Example 1); assay type: in vivo, CB17SCID male mice; details: for Intratumoral concentration of Compound A01 (mean ± SD): HT-29 tumor, day 24
Description: as §1, §2

[4] = tested on: CT26 murine colon carcinoma cells; assay: CT26 tumor growth, Compound A01 with anti-mPD-L1 (Example 4); assay type: in vivo, Female Envigo BALB/c (BALB/cAnNHsd) mice; details: for tumor growth (tumor volume): all doses 10 mg/kg, A01 oral daily, antibodies i.p.
Description: (§3) CT26 murine colon carcinoma cells were prepared as in Example 2. Female Envigo BALB/c (BALB/cAnNHsd) were inoculated with 5×10^5 CT26 cells suspended in PBS (200 μL) subcutaneously high in the axilla (just under the fore limb). […] The antibodies were administered via i.p. injection on days 3, 6, 9, 12, and 16 following inoculation. Compound A01 was given per oral daily. The mice were euthanized two hours following final dose on Day 16 and samples were prepared for testing.

[5] = tested on: intratumoral immune cells (CT26 tumors); assay: Intratumoral immune response by flow cytometry (Example 4); assay type: in vivo, Female Envigo BALB/c (BALB/cAnNHsd) mice
Description: as §3
Following euthanization, tumors were removed and processed to recover live cells. Red blood cells were removed. The cells were stained for surface markers and, where applicable, permeabilized for intracellular staining. The cells were washed and suspended in flow cytometry staining buffer and analyzed via flow cytometry.
The treatment had minimal effect on the relative number of Tregs (CD25^+Foxp3^+) and MDSCs (CD11b^+Ly6G^+) (as a percentage of total CD45^+ cells). […] FIG. 3 correlates CD8^+ cell percentages to tumor regression.

[6] = tested on: HT-29 xenograft colon carcinoma model; assay: HT-29 xenograft tumor volume, Compound A01 vs celecoxib (Example 5); assay type: in vivo, CB17SCID mice
Description: (§4) HT-29 cells were prepared and implanted by standard methods using the same procedure as Example 1.
(§5) 42 CB17SCID mice were implanted with 2.5×10^6 HT-29 cells.
(§6) Mouse weight and tumor volume measurements were taken on days 0, 3, 6, 9, 12, 15, 18, 21, and 22 following randomization. After 22 days dosing, the blood from each animal was collected at 2 hours and 6 hours post dose.

PGE-2 = assay: Tumoral PGE-2 in HT-29 tumors (Example 5); assay type: in vivo, CB17SCID mice; details: HT-29 tumor, day 24
Description: as §4, §5, §6

[7] = of total CD8+CD4− T cells, Day 16, doses 10 mg/kg
[8] = percentage of total CD45+ cells, Day 16, doses 10 mg/kg

- Intratumoral concentration of Compound A01 (mean ± SD) ([3]; A01 1 mg/kg): 1478.5 ± 652.1 µg/g
- Intratumoral concentration of Compound A01 (mean ± SD) ([3]; A01 10 mg/kg): 9720 ± 2758.7 µg/g
- increase in intratumor level of Compound A01 on addition of erlotinib ([3]; with erlotinib vs Compound A01 in the absence of erlotinib): 1.5 fold
SMILES: [2H]C([2H])([2H])c1cc(Br)cc2c1O[C@H](C(F)(F)F)C(C(=O)O)=C2 [Compound A01, (S)-6-bromo-8-trideuteromethyl-2-(trifluoromethyl)-2H-chromene-3-carboxylic acid]
- suppression of tumor growth compared to vehicle ([1]; 10 mg/kg Compound A01 alone): 51%
- Tumor Volume ([1]; Day 0, A01 1 mg/kg oral daily): 71.8 mm^3
- Tumor Volume ([1]; Day 0, A01 10 mg/kg oral daily): 70.1 mm^3
- Tumor Volume ([1]; Day 3, A01 1 mg/kg oral daily): 143.8 mm^3
- Tumor Volume ([1]; Day 3, A01 10 mg/kg oral daily): 145.2 mm^3
- Tumor Volume ([1]; Day 6, A01 1 mg/kg oral daily): 194.2 mm^3
- Tumor Volume ([1]; Day 6, A01 10 mg/kg oral daily): 186.9 mm^3
- Tumor Volume ([1]; Day 9, A01 1 mg/kg oral daily): 301.1 mm^3
- Tumor Volume ([1]; Day 9, A01 10 mg/kg oral daily): 235.1 mm^3
- Tumor Volume ([1]; Day 12, A01 1 mg/kg oral daily): 344.8 mm^3
- Tumor Volume ([1]; Day 12, A01 10 mg/kg oral daily): 292.1 mm^3
- Tumor Volume ([1]; Day 15, A01 1 mg/kg oral daily): 459.4 mm^3
- Tumor Volume ([1]; Day 15, A01 10 mg/kg oral daily): 309.7 mm^3
- Tumor Volume ([1]; Day 18, A01 1 mg/kg oral daily): 820.6 mm^3
- Tumor Volume ([1]; Day 18, A01 10 mg/kg oral daily): 497.5 mm^3
- Tumor Volume ([1]; Day 21, A01 1 mg/kg oral daily): 899.0 mm^3
- Tumor Volume ([1]; Day 21, A01 10 mg/kg oral daily): 592.1 mm^3
- Tumor Volume ([1]; Day 22, A01 1 mg/kg oral daily): 921.1 mm^3
- Tumor Volume ([1]; Day 22, A01 10 mg/kg oral daily): 612.1 mm^3
- slowing of tumor growth, comparison of therapies ([1]; HT-29 xenograft, compared to vehicle and to each therapy alone): superior to 50 mg/kg erlotinib
- Body weight ([2]; Day 0, A01 1 mg/kg oral daily): 23.4 g
- Body weight ([2]; Day 0, A01 10 mg/kg oral daily): 23.5 g
- Body weight ([2]; Day 3, A01 1 mg/kg oral daily): 22.4 g
- Body weight ([2]; Day 6, A01 1 mg/kg oral daily): 21.6 g
- Body weight ([2]; Day 6, A01 10 mg/kg oral daily): 22.0 g
- Body weight ([2]; Day 15, A01 1 mg/kg oral daily): 20.0 g
- Body weight ([2]; Day 18, A01 1 mg/kg oral daily): 19.9 g
- Body weight ([2]; Day 21, A01 1 mg/kg oral daily): 19.9 g
- Body weight ([2]; Day 22, A01 1 mg/kg oral daily): 20.0 g
- tumor growth compared to vehicle and isotype controls ([4]; CT26, doses 10 mg/kg): slowed
- tumor growth (tumor volume) ([4]; Day 3): 0 mm^3
- tumor growth (tumor volume) ([4]; Day 4): 0 mm^3
- tumor growth (tumor volume) ([4]; Day 6): 8 mm^3
- tumor growth (tumor volume) ([4]; Day 9): 97 mm^3
- tumor growth (tumor volume) ([4]; Day 11): 242 mm^3
- tumor growth (tumor volume) ([4]; Day 13): 442 mm^3
- tumor growth (tumor volume) ([4]; Day 16): 759 mm^3
- Ki67+ CD8+ T cells [5, 7]: 13.75%
- PD-1+ CD8+ T cells [5, 7]: 84.36%
- CD4+ CD8− intratumoral T cells [5, 8]: 1.01%
- CD8+ CD4− intratumoral T cells [5, 8]: 6.32%
- MDSCs (CD11b+Ly6G+) [5, 8]: 12.09%
- Tregs (CD25+Foxp3+) [5, 8]: 2.29%
- level of Ki67+CD8+ T cells (of total CD8+CD4− T cells), in words ([5]; summary of Table 12): reduced
- level of PD-1+CD8+ T cells (of total CD8+CD4− T cells), in words ([5]; summary of Table 12): reduced
- percentage of intratumoral CD4+CD8− T cells (of total CD45+ cells), in words ([5]; summary of Table 12): increased
- percentage of intratumoral CD8+CD4− T cells (of total CD45+ cells), in words ([5]; summary of Table 12): increased
- Tumor Volume ([6]; Day 0, 0.1 mg/kg oral daily): 65.8 mm^3
- Tumor Volume ([6]; Day 0, 0.3 mg/kg oral daily): 70.9 mm^3
- Tumor Volume ([6]; Day 0, 1 mg/kg oral daily): 68.5 mm^3
- Tumor Volume ([6]; Day 0, 3 mg/kg oral daily): 68.4 mm^3
- Tumor Volume ([6]; Day 0, 10 mg/kg oral daily): 69.0 mm^3
- Tumor Volume ([6]; Day 3, 0.1 mg/kg oral daily): 88.5 mm^3
- Tumor Volume ([6]; Day 3, 0.3 mg/kg oral daily): 83.8 mm^3
- Tumor Volume ([6]; Day 3, 1 mg/kg oral daily): 85.2 mm^3
- Tumor Volume ([6]; Day 3, 3 mg/kg oral daily): 80.3 mm^3
- Tumor Volume ([6]; Day 3, 10 mg/kg oral daily): 83.9 mm^3
- Tumor Volume ([6]; Day 6, 0.1 mg/kg oral daily): 165.0 mm^3
- Tumor Volume ([6]; Day 6, 0.3 mg/kg oral daily): 132.9 mm^3
- Tumor Volume ([6]; Day 6, 1 mg/kg oral daily): 152.8 mm^3
- Tumor Volume ([6]; Day 6, 3 mg/kg oral daily): 121.9 mm^3
- Tumor Volume ([6]; Day 6, 10 mg/kg oral daily): 107.7 mm^3
- Tumor Volume ([6]; Day 9, 0.1 mg/kg oral daily): 283.1 mm^3
- Tumor Volume ([6]; Day 9, 0.3 mg/kg oral daily): 231.5 mm^3
- Tumor Volume ([6]; Day 9, 1 mg/kg oral daily): 239.8 mm^3
- Tumor Volume ([6]; Day 9, 3 mg/kg oral daily): 190.1 mm^3
- Tumor Volume ([6]; Day 9, 10 mg/kg oral daily): 176.0 mm^3
- Tumor Volume ([6]; Day 12, 0.1 mg/kg oral daily): 360.3 mm^3
- Tumor Volume ([6]; Day 12, 0.3 mg/kg oral daily): 298.2 mm^3
- Tumor Volume ([6]; Day 12, 1 mg/kg oral daily): 311.1 mm^3
- Tumor Volume ([6]; Day 12, 3 mg/kg oral daily): 279.5 mm^3
- Tumor Volume ([6]; Day 12, 10 mg/kg oral daily): 257.7 mm^3
- Tumor Volume ([6]; Day 15, 0.1 mg/kg oral daily): 416.8 mm^3
- Tumor Volume ([6]; Day 15, 0.3 mg/kg oral daily): 350.7 mm^3
- Tumor Volume ([6]; Day 15, 1 mg/kg oral daily): 364.8 mm^3
- Tumor Volume ([6]; Day 15, 3 mg/kg oral daily): 329.1 mm^3
- Tumor Volume ([6]; Day 15, 10 mg/kg oral daily): 332.0 mm^3
- Tumor Volume ([6]; Day 18, 0.1 mg/kg oral daily): 640.9 mm^3
- Tumor Volume ([6]; Day 18, 0.3 mg/kg oral daily): 530.8 mm^3
- Tumor Volume ([6]; Day 18, 1 mg/kg oral daily): 532.6 mm^3
- Tumor Volume ([6]; Day 18, 3 mg/kg oral daily): 445.1 mm^3
- Tumor Volume ([6]; Day 18, 10 mg/kg oral daily): 357.3 mm^3
- Tumor Volume ([6]; Day 21, 0.1 mg/kg oral daily): 900.4 mm^3
- Tumor Volume ([6]; Day 21, 0.3 mg/kg oral daily): 723.5 mm^3
- Tumor Volume ([6]; Day 21, 1 mg/kg oral daily): 730.9 mm^3
- Tumor Volume ([6]; Day 21, 3 mg/kg oral daily): 622.8 mm^3
- Tumor Volume ([6]; Day 21, 10 mg/kg oral daily): 453.6 mm^3
- Tumor Volume ([6]; Day 22, 0.1 mg/kg oral daily): 987.7 mm^3
- Tumor Volume ([6]; Day 22, 0.3 mg/kg oral daily): 753.5 mm^3
- Tumor Volume ([6]; Day 22, 1 mg/kg oral daily): 772.1 mm^3
- Tumor Volume ([6]; Day 22, 3 mg/kg oral daily): 699.4 mm^3
- Tumor Volume ([6]; Day 22, 10 mg/kg oral daily): 561.8 mm^3
- Mean PGE-2 (tumoral) (PGE-2; 0.1 mg/kg): 203.9 ± 157.9 ng/g
- Mean PGE-2 (tumoral) (PGE-2; 0.3 mg/kg): 237.3 ± 119.8 ng/g
- Mean PGE-2 (tumoral) (PGE-2; 1 mg/kg): 90.7 ± 105.1 ng/g
- Mean PGE-2 (tumoral) (PGE-2; 3 mg/kg): 94.3 ± 78.4 ng/g
- Mean PGE-2 (tumoral) (PGE-2; 10 mg/kg): 45.5 ± 73.4 ng/g
